Legend:
[1] = biological target: T1, Steroid 17-alpha-hydroxylase/17,20 lyase (Homo sapiens, UniProt P05093); experiment: Inhibition of human CYP17 expressed in Escherichia coli at 2 uM
T1 sequence (P05093 whole entry): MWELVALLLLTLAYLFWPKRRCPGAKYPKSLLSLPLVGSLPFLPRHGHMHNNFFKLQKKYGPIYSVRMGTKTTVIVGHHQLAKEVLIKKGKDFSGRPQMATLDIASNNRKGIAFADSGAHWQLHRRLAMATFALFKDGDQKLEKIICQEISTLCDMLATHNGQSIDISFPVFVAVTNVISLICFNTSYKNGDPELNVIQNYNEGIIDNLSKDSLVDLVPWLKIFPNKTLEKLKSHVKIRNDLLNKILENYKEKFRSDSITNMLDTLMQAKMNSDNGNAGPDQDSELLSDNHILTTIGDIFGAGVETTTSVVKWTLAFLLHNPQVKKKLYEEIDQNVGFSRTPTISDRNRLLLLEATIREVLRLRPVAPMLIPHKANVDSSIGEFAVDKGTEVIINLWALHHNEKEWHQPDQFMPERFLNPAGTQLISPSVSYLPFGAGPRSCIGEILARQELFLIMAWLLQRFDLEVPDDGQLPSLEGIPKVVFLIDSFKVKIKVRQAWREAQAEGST

[2] = biological target: T1, Steroid 17-alpha-hydroxylase/17,20 lyase; experiment: Inhibition of human CYP17 expressed in Escherichia coli at 0.2 uM
CYP2C19 [3] = biological target: T2, CYP2C19 (Homo sapiens, UniProt P33261); experiment: Inhibition of hepatic CYP2C19 at 1 uM; assay type: ADME
T2 sequence (P33261 whole entry): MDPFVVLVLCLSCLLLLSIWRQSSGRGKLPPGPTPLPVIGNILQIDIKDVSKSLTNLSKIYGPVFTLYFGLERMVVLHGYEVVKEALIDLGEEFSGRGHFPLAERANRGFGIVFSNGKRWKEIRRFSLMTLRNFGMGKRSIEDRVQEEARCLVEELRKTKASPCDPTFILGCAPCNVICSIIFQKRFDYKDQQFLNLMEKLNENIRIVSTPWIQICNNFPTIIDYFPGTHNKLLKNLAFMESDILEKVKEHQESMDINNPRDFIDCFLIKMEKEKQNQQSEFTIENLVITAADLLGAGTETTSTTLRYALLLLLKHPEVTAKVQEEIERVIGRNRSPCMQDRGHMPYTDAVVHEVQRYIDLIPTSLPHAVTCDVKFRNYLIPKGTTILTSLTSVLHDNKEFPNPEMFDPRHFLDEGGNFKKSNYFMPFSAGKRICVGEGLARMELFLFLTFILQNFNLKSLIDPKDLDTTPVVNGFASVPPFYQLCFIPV

CYP2C9 [4] = biological target: T3, CYP2C9 (Homo sapiens, UniProt P11712); experiment: Inhibition of hepatic CYP2C9 at 1 uM; assay type: ADME
T3 sequence (P11712 whole entry): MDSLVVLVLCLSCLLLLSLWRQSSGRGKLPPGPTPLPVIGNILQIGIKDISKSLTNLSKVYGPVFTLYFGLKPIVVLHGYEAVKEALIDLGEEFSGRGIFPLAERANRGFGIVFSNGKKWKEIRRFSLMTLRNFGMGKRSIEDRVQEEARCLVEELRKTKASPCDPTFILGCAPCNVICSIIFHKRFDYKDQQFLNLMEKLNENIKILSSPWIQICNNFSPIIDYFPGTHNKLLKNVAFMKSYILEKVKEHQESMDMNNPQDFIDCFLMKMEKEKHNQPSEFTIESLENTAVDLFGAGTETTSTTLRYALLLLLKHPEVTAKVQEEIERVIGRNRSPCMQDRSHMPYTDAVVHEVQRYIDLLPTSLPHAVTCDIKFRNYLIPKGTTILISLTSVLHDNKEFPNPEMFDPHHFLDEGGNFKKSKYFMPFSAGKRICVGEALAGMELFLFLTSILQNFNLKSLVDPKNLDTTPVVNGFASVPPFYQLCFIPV

CYP2C19 [5] = biological target: T2, CYP2C19; experiment: Inhibition of hepatic CYP2C19 at 10 uM; assay type: ADME
CYP1A2 [6] = biological target: T4, CYP1A2 (Homo sapiens, UniProt P05177); experiment: Inhibition of hepatic CYP1A2 at 1 uM; assay type: ADME
T4 sequence (P05177 whole entry): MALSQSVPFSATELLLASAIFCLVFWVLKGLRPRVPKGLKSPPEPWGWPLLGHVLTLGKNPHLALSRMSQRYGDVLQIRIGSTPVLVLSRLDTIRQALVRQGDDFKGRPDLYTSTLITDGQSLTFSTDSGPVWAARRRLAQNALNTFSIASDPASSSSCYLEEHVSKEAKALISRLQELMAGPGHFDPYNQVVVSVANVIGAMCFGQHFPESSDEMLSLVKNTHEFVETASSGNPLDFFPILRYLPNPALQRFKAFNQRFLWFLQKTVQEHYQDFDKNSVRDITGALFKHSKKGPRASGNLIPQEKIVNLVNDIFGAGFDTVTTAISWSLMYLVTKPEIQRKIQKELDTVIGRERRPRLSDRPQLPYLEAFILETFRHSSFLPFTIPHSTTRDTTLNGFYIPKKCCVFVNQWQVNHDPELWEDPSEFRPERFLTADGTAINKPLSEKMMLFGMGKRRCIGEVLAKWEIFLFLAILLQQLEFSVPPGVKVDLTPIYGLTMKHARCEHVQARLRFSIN

CYP1A2 [7] = biological target: T4, CYP1A2; experiment: Inhibition of hepatic CYP1A2 at 10 uM; assay type: ADME
CYP2C9 [8] = biological target: T3, CYP2C9; experiment: Inhibition of hepatic CYP2C9 at 10 uM; assay type: ADME
CYP3A4 [9] = biological target: T5, CYP3A4 (Homo sapiens, UniProt P08684); experiment: Inhibition of hepatic CYP3A4 at 10 uM; assay type: ADME
T5 sequence (P08684 whole entry): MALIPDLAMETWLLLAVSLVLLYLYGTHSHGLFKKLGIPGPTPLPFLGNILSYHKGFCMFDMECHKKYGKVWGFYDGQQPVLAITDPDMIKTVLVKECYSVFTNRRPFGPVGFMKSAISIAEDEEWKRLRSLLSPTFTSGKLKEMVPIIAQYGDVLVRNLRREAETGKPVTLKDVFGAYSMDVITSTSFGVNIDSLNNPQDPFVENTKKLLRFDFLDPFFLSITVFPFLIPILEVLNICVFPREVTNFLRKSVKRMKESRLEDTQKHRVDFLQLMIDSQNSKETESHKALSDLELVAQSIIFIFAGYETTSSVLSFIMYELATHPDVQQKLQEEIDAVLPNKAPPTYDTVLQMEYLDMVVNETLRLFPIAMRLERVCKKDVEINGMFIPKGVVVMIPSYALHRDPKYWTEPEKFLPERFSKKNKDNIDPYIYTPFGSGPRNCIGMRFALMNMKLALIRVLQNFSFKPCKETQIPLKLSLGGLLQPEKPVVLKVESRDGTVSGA

CYP3A4 [10] = biological target: T5, CYP3A4; experiment: Inhibition of hepatic CYP3A4 at 1 uM; assay type: ADME
CYP11B1 [11] = biological target: T6, CYP11B1 (Homo sapiens, UniProt P15538); experiment: Inhibition of human CYP11B1 expressed in V79Zh11B1 cells at 2 uM; assay type: cell-based; conditions: V79Zh11B1 cells expressing human CYP11B1
T6 sequence (P15538 whole entry): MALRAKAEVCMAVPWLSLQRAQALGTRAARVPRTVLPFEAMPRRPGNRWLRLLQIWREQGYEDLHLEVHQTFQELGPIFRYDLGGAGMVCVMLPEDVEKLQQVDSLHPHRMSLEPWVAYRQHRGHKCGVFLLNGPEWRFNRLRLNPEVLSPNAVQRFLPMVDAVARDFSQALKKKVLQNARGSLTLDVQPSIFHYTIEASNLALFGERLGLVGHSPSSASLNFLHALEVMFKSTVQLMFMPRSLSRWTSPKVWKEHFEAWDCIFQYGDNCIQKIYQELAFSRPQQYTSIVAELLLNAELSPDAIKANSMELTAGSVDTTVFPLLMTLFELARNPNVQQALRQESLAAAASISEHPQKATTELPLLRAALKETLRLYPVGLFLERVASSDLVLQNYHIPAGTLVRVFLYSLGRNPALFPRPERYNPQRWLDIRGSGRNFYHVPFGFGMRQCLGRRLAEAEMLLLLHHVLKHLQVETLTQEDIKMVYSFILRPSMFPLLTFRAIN

CYP2D6 [12] = biological target: T7, CYP2D6 (Homo sapiens, UniProt P10635); experiment: Inhibition of CYP2D6 at 1 uM; assay type: ADME
T7 sequence (P10635 whole entry): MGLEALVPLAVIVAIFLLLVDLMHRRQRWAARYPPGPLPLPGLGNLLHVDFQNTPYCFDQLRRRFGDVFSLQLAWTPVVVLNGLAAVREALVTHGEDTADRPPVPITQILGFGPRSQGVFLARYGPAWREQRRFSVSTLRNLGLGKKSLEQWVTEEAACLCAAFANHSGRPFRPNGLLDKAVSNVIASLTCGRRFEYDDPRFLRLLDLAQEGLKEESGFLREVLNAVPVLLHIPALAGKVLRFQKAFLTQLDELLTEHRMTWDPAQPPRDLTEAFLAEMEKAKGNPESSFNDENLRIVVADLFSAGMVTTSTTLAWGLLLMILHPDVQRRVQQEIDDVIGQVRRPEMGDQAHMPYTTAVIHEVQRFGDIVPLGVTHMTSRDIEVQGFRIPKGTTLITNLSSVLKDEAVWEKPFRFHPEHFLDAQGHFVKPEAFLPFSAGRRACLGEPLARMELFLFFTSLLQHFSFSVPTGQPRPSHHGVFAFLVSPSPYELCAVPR

CYP2D6 [13] = biological target: T7, CYP2D6; experiment: Inhibition of CYP2D6 at 10 uM; assay type: ADME
CYP3A4 [14] = biological target: T5, CYP3A4; experiment: Inhibition of hepatic recombinant CYP3A4 at 10 uM; assay type: ADME
CYP11B1 [15] = biological target: T6, CYP11B1; experiment: Inhibition of human CYP11B1 expressed in V79Zh11B1 cells at 0.2 uM; assay type: cell-based, V79; conditions: V79Zh11B1 cells expressing human CYP11B1
[16] = biological target: T1, Steroid 17-alpha-hydroxylase/17,20 lyase; experiment: Inhibition of human CYP17 expressed in Escherichia coli

SMILES | inhibition at 2 µM [1] [%] | inhibition at 0.2 µM [2] [%] | inhibition at 1 µM (CYP2C19 [3]) [%] | inhibition at 1 µM (CYP2C9 [4]) [%] | inhibition at 10 µM (CYP2C19 [5]) [%] | inhibition at 1 µM (CYP1A2 [6]) [%] | inhibition at 10 µM (CYP1A2 [7]) [%] | inhibition at 10 µM (CYP2C9 [8]) [%] | inhibition at 10 µM (CYP3A4 [9]) [%] | inhibition at 1 µM (CYP3A4 [10]) [%] | other results
COc1ccc2cc(-c3ccc(F)cc3)ccc2c1Cn1ccnc1 | 45 | 13 | 93 | 100 | 96 | 80 | 85 | 100 | 95 | 93 | 
Cc1cc(F)ccc1-c1ccc2c(-c3cccnc3)cccc2c1 | 3 | 3 |  |  |  |  |  |  |  |  | 
COc1ccc2cc(-c3cccc(-c4ccncc4)c3)ccc2c1 | 23 | 4 |  |  |  |  |  |  |  |  | 
Oc1ccc2cc(-c3cccc(-c4ccncc4)c3)ccc2c1 | 66 | 31 | 86 | 94 | 89 | 98 | 98 | 97 | 19 | 6 | inhibition at 2 µM (CYP11B1 [11]): 23%; inhibition at 1 µM (CYP2D6 [12]): 80%; inhibition at 10 µM (CYP2D6 [13]): 85%; inhibition at 10 µM (CYP3A4 [14]): 19%; inhibition at 0.2 µM (CYP11B1 [15]): 3%
Oc1ccc2cc(-c3ccc(Cn4ccnc4)cc3)ccc2c1 | 61 | 24 |  |  |  |  |  |  |  |  | 
Fc1ccc(-c2cc(Cn3ccnc3)c3ccccc3c2)cc1 | 50 | 9 |  |  |  |  |  |  |  |  | 
COc1ccc2cc(-c3cccc(Cn4ccnc4)c3)ccc2c1 | 28 | 0 | 95 | 97 | 97 | 96 | 97 | 100 | 96 | 91 | 
Fc1ccc(-c2ccc3c(Cn4ccnc4)cccc3c2)cc1 | 19 | 2 |  |  |  |  |  |  |  |  | 
C[C@]12CC[C@H](O)CC1=CC[C@@H]1[C@@H]2CC[C@]2(C)C(c3cccnc3)=CC[C@@H]12 [ABIRATERONE] |  |  | 3 | 17 | 7 | 36 | 53 | 51 | 7 | 7 | IC50 [16]: 72 nM
CC(=O)N1CCN(c2ccc(OCC3COC(Cn4ccnc4)(c4ccc(Cl)cc4Cl)O3)cc2)CC1 (stereo not drawn) [KETOCONAZOLE] |  |  | 24 | 21 | 1 | 8 | 38 | 75 | 4 | 1 | 

More lines, main results first:

inhibition at 2 µM [1] [%] | inhibition at 0.2 µM [2] [%] | inhibition at 1 µM (CYP2C19 [3]) [%] | inhibition at 1 µM (CYP2C9 [4]) [%] | inhibition at 10 µM (CYP2C19 [5]) [%] | inhibition at 1 µM (CYP1A2 [6]) [%] | inhibition at 10 µM (CYP1A2 [7]) [%] | inhibition at 10 µM (CYP2C9 [8]) [%] | inhibition at 10 µM (CYP3A4 [9]) [%] | inhibition at 1 µM (CYP3A4 [10]) [%] | SMILES | other results
3 | 2 |  |  |  |  |  |  |  |  | Fc1ccc(-c2ccc3c(-c4cccnc4)cccc3c2)cc1 | 
0 | 0 |  |  |  |  |  |  |  |  | Oc1ccc2cc(-c3ccc(F)cc3)ccc2c1-c1cccnc1 | 
22 | 0 |  |  |  |  |  |  |  |  | Fc1ccc(-c2ccc3cc(-c4cccnc4)ccc3c2)cc1 | 
14 | 3 |  |  |  |  |  |  |  |  | Fc1ccc(-c2ccc3cc(Cn4ccnc4)ccc3c2)cc1 | 
1 | 0 |  |  |  |  |  |  |  |  | COc1ccc2cc(-c3cccnc3)ccc2c1-c1ccc(F)cc1 | 
8 | 0 |  |  |  |  |  |  |  |  | Oc1ccc2cc(-c3cccc(-c4cccnc4)c3)ccc2c1 | 
4 | 3 |  |  |  |  |  |  |  |  | COc1ccc2cc(-c3cccc(-c4cccnc4)c3)ccc2c1 | 
28 | 1 |  |  |  |  |  |  |  |  | Fc1ccc(-c2ccc3c(-c4ccncc4)cccc3c2)cc1 | 
7 | 6 | 68 | 66 | 28 | 40 | 87 | 54 | 86 | 64 | COc1ccc2cc(-c3ccc(F)cc3)ccc2c1-c1cccnc1 | 

From ChEMBL document CHEMBL1140785, “Synthesis, biological evaluation and molecular modelling studies of novel ACD- and ABD-ring steroidomimetics as inhibitors of CYP17” (Bioorg Med Chem Lett, 2008)
